{"source": "patent US20230181614A1", "about": "“ADMINISTRATION OF CITICOLINE TO IMPROVE COGNITIVE PERFORMANCE, ATTENTIONAL PERFORMANCE, AND MOTOR FUNCTION” (KYOWA HAKKO BIO CO., LTD., priority 2014, published 2023)", "tested_on": "Healthy subjects, ages 13-18", "experiment": "General Questionnaire", "assay_type": "in vivo, human", "conditions": "250 mg/day", "from_the_text": "Study participants were screened by telephone prior to study enrollment. Healthy subjects, ages 13-18, with no significant medical conditions and no history of co-morbid psychiatric disorder, current Axis I or II diagnosis, or previous participation in a pharmacotherapeutic trial, were selected. Use of any psychotropic medication or any previous head injury resulting in loss of consciousness for 5 or more minutes were used as exclusion criteria. While no participant met criteria for a neuropsychiatric disorder at enrollment, clinical assessments were still completed throughout the study to evaluate changes in mood state. In addition, self-reports of sleep habits, lifestyle, and exercise routines were also administered at baseline as well as at each study visit to assess changes in health habits during study participation. Following the completion of Visit 1 assessment, participants were given their 28-day supply of citicoline (250 mg or 500 mg) or placebo, which was randomly assigned. They were instructed to take one capsule a day every day for the next 28 days. Visit 2 occurred fourteen days after Visit 1. At Visit 2, the remaining study pills were counted and participant dosage calendars were checked to ensure compliance with the protocol. Additional neuropsychological measures and clinical assessments were administered during this visit. Participants returned for Visit 3 fourteen days later, on the 28th day of their study participation. The pill bottle and the dosage calendar were collected from each participant. Urine and blood were again obtained. Participants also participated in similar clinical and neuropsychological testing and clinical measures that were given during visit 1. The General Questionnaire and Exercise and Life Style Questionnaire are self-report questionnaires designed to assess a variety of symptoms, behaviors, and self-perceptions, including mood, complexion, exercise, food, and alcohol habits of each of the participants. The General Questionnaire was administered during each of the three study visits; the Exercise and Life Style Questionnaire was administered during each of the three study visits. The General Questionnaire included five summary categories (Vision, Depression, Attention, Sleep, and Complexion) each of which had multiple individual items. Within and between group analyses are reported below for each of the summary categories.", "data": [{"smiles": "C[N+](C)(C)CCOP(=O)(O)OP(=O)([O-])OC[C@H]1O[C@@H](n2ccc(N)nc2=O)[C@H](O)[C@@H]1O", "note": "[citicoline, Cytidine 5′-diphosphocholine]", "values": [{"measurement": "Attention Total V3-V1 Difference Mean", "result": -5.58}, {"measurement": "Complexion Total V3-V1 Difference Mean", "result": -0.67}, {"measurement": "Depression Total V3-V1 Difference Mean", "result": -7.37}, {"measurement": "Sleep Total V3-V1 Difference Mean", "result": -5.59}, {"measurement": "Vision Total V3-V1 Difference Mean", "result": -2.26}, {"measurement": "Attention Total V3 Mean", "setting": "Visit 3", "result": 38.48}, {"measurement": "Complexion Total V3 Mean", "setting": "Visit 3", "result": 3.96}, {"measurement": "Depression Total V3 Mean", "setting": "Visit 3", "result": 21.04}, {"measurement": "Sleep Total V3 Mean", "setting": "Visit 3", "result": 18.96}, {"measurement": "Vision Total V3 Mean", "setting": "Visit 3", "result": 6.59}, {"measurement": "General Questionnaire Attention Q13, Mean", "setting": "V1 (baseline)", "result": 3.52}, {"measurement": "General Questionnaire Attention Q14, Mean", "setting": "V1 (baseline)", "result": 2.37}, {"measurement": "General Questionnaire Attention Q15, Mean", "setting": "V1 (baseline)", "result": 3.89}, {"measurement": "General Questionnaire Attention Q16, Mean", "setting": "V1 (baseline)", "result": 3.19}, {"measurement": "General Questionnaire Attention Q17, Mean", "setting": "V1 (baseline)", "result": 3.30}, {"measurement": "General Questionnaire Attention Q18, Mean", "setting": "V1 (baseline)", "result": 2.63}, {"measurement": "General Questionnaire Attention Q19, Mean", "setting": "V1 (baseline)", "result": 6.59}, {"measurement": "General Questionnaire Attention Q20, Mean", "setting": "V1 (baseline)", "result": 3.48}, {"measurement": "General Questionnaire Attention Q21, Mean", "setting": "V1 (baseline)", "result": 3.22}, {"measurement": "General Questionnaire Attention Q22, Mean", "setting": "V1 (baseline)", "result": 4.00}, {"measurement": "General Questionnaire Attention Q23, Mean", "setting": "V1 (baseline)", "result": 4.15}, {"measurement": "General Questionnaire Attention Q24, Mean", "setting": "V1 (baseline)", "result": 3.67}, {"measurement": "General Questionnaire Attention Total, Mean", "setting": "V1 (baseline)", "result": 44.31}, {"measurement": "General Questionnaire Complexion Q33, Mean", "setting": "V1 (baseline)", "result": 2.78}, {"measurement": "General Questionnaire Complexion Q34, Mean", "setting": "V1 (baseline)", "result": 1.85}, {"measurement": "General Questionnaire Complexion Total, Mean", "setting": "V1 (baseline)", "result": 4.63}, {"measurement": "General Questionnaire Depression Q4, Mean", "setting": "V1 (baseline)", "result": 2.59}, {"measurement": "General Questionnaire Depression Q5, Mean", "setting": "V1 (baseline)", "result": 3.26}, {"measurement": "General Questionnaire Depression Q6, Mean", "setting": "V1 (baseline)", "result": 2.85}, {"measurement": "General Questionnaire Depression Q7, Mean", "setting": "V1 (baseline)", "result": 4.26}, {"measurement": "General Questionnaire Depression Q8, Mean", "setting": "V1 (baseline)", "result": 2.74}, {"measurement": "General Questionnaire Depression Q9, Mean", "setting": "V1 (baseline)", "result": 3.74}, {"measurement": "General Questionnaire Depression Q10, Mean", "setting": "V1 (baseline)", "result": 2.85}, {"measurement": "General Questionnaire Depression Q11, Mean", "setting": "V1 (baseline)", "result": 2.85}, {"measurement": "General Questionnaire Depression Q12, Mean", "setting": "V1 (baseline)", "result": 3.26}, {"measurement": "General Questionnaire Depression Total, Mean", "setting": "V1 (baseline)", "result": 28.41}, {"measurement": "General Questionnaire Sleep Q25, Mean", "setting": "V1 (baseline)", "result": 3.19}, {"measurement": "General Questionnaire Sleep Q26, Mean", "setting": "V1 (baseline)", "result": 2.78}, {"measurement": "General Questionnaire Sleep Q27, Mean", "setting": "V1 (baseline)", "result": 3.26}, {"measurement": "General Questionnaire Sleep Q28, Mean", "setting": "V1 (baseline)", "result": 3.63}, {"measurement": "General Questionnaire Sleep Q29, Mean", "setting": "V1 (baseline)", "result": 3.48}, {"measurement": "General Questionnaire Sleep Q30, Mean", "setting": "V1 (baseline)", "result": 2.11}, {"measurement": "General Questionnaire Sleep Q31, Mean", "setting": "V1 (baseline)", "result": 1.96}, {"measurement": "General Questionnaire Sleep Q32, Mean", "setting": "V1 (baseline)", "result": 4.15}, {"measurement": "General Questionnaire Sleep Total, Mean", "setting": "V1 (baseline)", "result": 24.56}, {"measurement": "General Questionnaire Vision Q1, Mean", "setting": "V1 (baseline)", "result": 3.44}, {"measurement": "General Questionnaire Vision Q2, Mean", "setting": "V1 (baseline)", "result": 3.26}, {"measurement": "General Questionnaire Vision Q3, Mean", "setting": "V1 (baseline)", "result": 2.15}, {"measurement": "General Questionnaire Vision Total, Mean", "setting": "V1 (baseline)", "result": 8.85}, {"measurement": "General Questionnaire Attention Q13, Mean", "setting": "V3 (day 28)", "result": 2.74}, {"measurement": "General Questionnaire Attention Q14, Mean", "setting": "V3 (day 28)", "result": 2.48}, {"measurement": "General Questionnaire Attention Q15, Mean", "setting": "V3 (day 28)", "result": 3.15}, {"measurement": "General Questionnaire Attention Q16, Mean", "setting": "V3 (day 28)", "result": 2.63}, {"measurement": "General Questionnaire Attention Q17, Mean", "setting": "V3 (day 28)", "result": 2.48}, {"measurement": "General Questionnaire Attention Q18, Mean", "setting": "V3 (day 28)", "result": 2.26}, {"measurement": "General Questionnaire Attention Q19, Mean", "setting": "V3 (day 28)", "result": 6.41}, {"measurement": "General Questionnaire Attention Q20, Mean", "setting": "V3 (day 28)", "result": 3.22}, {"measurement": "General Questionnaire Attention Q21, Mean", "setting": "V3 (day 28)", "result": 3.15}, {"measurement": "General Questionnaire Attention Q22, Mean", "setting": "V3 (day 28)", "result": 3.35}, {"measurement": "General Questionnaire Attention Q23, Mean", "setting": "V3 (day 28)", "result": 3.70}, {"measurement": "General Questionnaire Attention Q24, Mean", "setting": "V3 (day 28)", "result": 2.96}, {"measurement": "General Questionnaire Attention Total, Mean", "setting": "V3 (day 28)", "result": 38.73}, {"measurement": "General Questionnaire Complexion Q33, Mean", "setting": "V3 (day 28)", "result": 2.30}, {"measurement": "General Questionnaire Complexion Q34, Mean", "setting": "V3 (day 28)", "result": 1.67}, {"measurement": "General Questionnaire Complexion Total, Mean", "setting": "V3 (day 28)", "result": 3.96}, {"measurement": "General Questionnaire Depression Q4, Mean", "setting": "V3 (day 28)", "result": 1.81}, {"measurement": "General Questionnaire Depression Q5, Mean", "setting": "V3 (day 28)", "result": 2.30}, {"measurement": "General Questionnaire Depression Q6, Mean", "setting": "V3 (day 28)", "result": 2.00}, {"measurement": "General Questionnaire Depression Q7, Mean", "setting": "V3 (day 28)", "result": 3.33}, {"measurement": "General Questionnaire Depression Q8, Mean", "setting": "V3 (day 28)", "result": 1.81}, {"measurement": "General Questionnaire Depression Q9, Mean", "setting": "V3 (day 28)", "result": 2.89}, {"measurement": "General Questionnaire Depression Q10, Mean", "setting": "V3 (day 28)", "result": 2.07}, {"measurement": "General Questionnaire Depression Q11, Mean", "setting": "V3 (day 28)", "result": 2.15}, {"measurement": "General Questionnaire Depression Q12, Mean", "setting": "V3 (day 28)", "result": 2.67}, {"measurement": "General Questionnaire Depression Total, Mean", "setting": "V3 (day 28)", "result": 21.04}, {"measurement": "General Questionnaire Sleep Q25, Mean", "setting": "V3 (day 28)", "result": 2.33}, {"measurement": "General Questionnaire Sleep Q26, Mean", "setting": "V3 (day 28)", "result": 2.15}, {"measurement": "General Questionnaire Sleep Q27, Mean", "setting": "V3 (day 28)", "result": 2.07}, {"measurement": "General Questionnaire Sleep Q28, Mean", "setting": "V3 (day 28)", "result": 2.78}, {"measurement": "General Questionnaire Sleep Q29, Mean", "setting": "V3 (day 28)", "result": 2.19}, {"measurement": "General Questionnaire Sleep Q30, Mean", "setting": "V3 (day 28)", "result": 1.96}, {"measurement": "General Questionnaire Sleep Q31, Mean", "setting": "V3 (day 28)", "result": 1.93}, {"measurement": "General Questionnaire Sleep Q32, Mean", "setting": "V3 (day 28)", "result": 3.56}, {"measurement": "General Questionnaire Sleep Total, Mean", "setting": "V3 (day 28)", "result": 18.96}, {"measurement": "General Questionnaire Vision Q1, Mean", "setting": "V3 (day 28)", "result": 2.33}]}]}
